In brackets after ≈: the same amount, converted by molar mass. Where two headings read alike, the source gives them in different places.
Tests used:
Assay in all cases: MIC, broth microdilution
[1] = test system: E. coli GC 1073; details: Escherichia coli
[2] = test system: E. faecalis GC 2267; details: Enterococcus faecalis
[3] = test system: S. aureus GC 1131; details: Staphylococcus aureus
[4] = test system: E. coli GC 2270; details: Escherichia coli
[5] = test system: E. coli GC 2271; details: Escherichia coli
[6] = test system: S. epidermidis GC 4935; details: Staphylococcus epidermidis
[7] = test system: c. albicans GC 3066
[8] = test system: E. coli GC 2272; details: Escherichia coli
[9] = test system: S. aureus GC 6467; details: Staphylococcus aureus
[10] = test system: E. coli GC 6465; details: Escherichia coli
[11] = test system: E. coli GC 3226; details: Escherichia coli
[12] = test system: S. aureus GC 1079; details: Staphylococcus aureus
[13] = test system: E. coli GC 2233; details: Escherichia coli
[14] = test system: E. faecium GC 2243; details: Enterococcus faecium
[15] = test system: P. aeruginosa GC 2214; details: Pseudomonas aeruginosa
[16] = test system: E. coli GC 4560; details: Escherichia coli
[17] = test system: S. aureus GC 6335; details: Staphylococcus aureus
[18] = test system: S. aureus GC 6469; details: Staphylococcus aureus
[19] = test system: E. coli GC 2203; details: Escherichia coli
[20] = test system: E. faecalis GC 2265; details: Enterococcus faecalis

MIC ([1]; GC1073, read-out: MINIMAL INHIBITORY CONCENTRATION MIC, pre-incubated in Human Serum): 32 µg/mL (≈ 41.1 µM)
MIC ([1]; GC1073, read-out: MINIMAL INHIBITORY CONCENTRATION MIC, pre-incubated in Mouse Serum): 2 µg/mL (≈ 2.57 µM)
MIC ([1]; GC1073, read-out: MINIMAL INHIBITORY CONCENTRATION MIC, pre-incubated in Water): > 64 µg/mL
MIC ([2]; GC2267, read-out: MINIMAL INHIBITORY CONCENTRATION MIC, pre-incubated in Human Serum): 4 µg/mL (≈ 5.14 µM)
MIC ([2]; GC2267, read-out: MINIMAL INHIBITORY CONCENTRATION MIC, pre-incubated in Mouse Serum): 1 µg/mL (≈ 1.29 µM)
MIC ([2]; GC2267, read-out: MINIMAL INHIBITORY CONCENTRATION MIC, pre-incubated in Water): 4 µg/mL (≈ 5.14 µM)
MIC ([3]; GC1131, read-out: MINIMAL INHIBITORY CONCENTRATION MIC, pre-incubated in Human Serum): 2 µg/mL (≈ 2.57 µM)
MIC ([3]; GC1131, read-out: MINIMAL INHIBITORY CONCENTRATION MIC, pre-incubated in Mouse Serum): 1 µg/mL (≈ 1.29 µM)
MIC ([3]; GC1131, read-out: MINIMAL INHIBITORY CONCENTRATION MIC, pre-incubated in Water): 2 µg/mL (≈ 2.57 µM)
MIC ([4]; GC2270, read-out: MINIMAL INHIBITORY CONCENTRATION MIC, pre-incubated in Human Serum): 16 µg/mL (≈ 20.6 µM)
MIC ([4]; GC2270, read-out: MINIMAL INHIBITORY CONCENTRATION MIC, pre-incubated in Mouse Serum): 0.5 µg/mL (≈ 0.643 µM)
MIC ([4]; GC2270, read-out: MINIMAL INHIBITORY CONCENTRATION MIC, pre-incubated in Water): > 64 µg/mL
MIC ([5]; GC2271, read-out: MINIMAL INHIBITORY CONCENTRATION MIC, pre-incubated in Human Serum): 16 µg/mL (≈ 20.6 µM)
MIC ([5]; GC2271, read-out: MINIMAL INHIBITORY CONCENTRATION MIC, pre-incubated in Mouse Serum): 1 µg/mL (≈ 1.29 µM)
MIC ([5]; GC2271, read-out: MINIMAL INHIBITORY CONCENTRATION MIC, pre-incubated in Water): > 64 µg/mL
MIC ([6]; GC4935, read-out: MINIMAL INHIBITORY CONCENTRATION MIC, pre-incubated in Human Serum): 4 µg/mL (≈ 5.14 µM)
MIC ([6]; GC4935, read-out: MINIMAL INHIBITORY CONCENTRATION MIC, pre-incubated in Mouse Serum): 2 µg/mL (≈ 2.57 µM)
MIC ([6]; GC4935, read-out: MINIMAL INHIBITORY CONCENTRATION MIC, pre-incubated in Water): 4 µg/mL (≈ 5.14 µM)
MIC ([7]; Candida albicans, GC3066, read-out: MINIMAL INHIBITORY CONCENTRATION MIC): > 64 µg/mL
MINIMAL INHIBITORY CONCENTRATION MIC ([7]; pre-incubated in Human Serum): >64 UG/ML
MINIMAL INHIBITORY CONCENTRATION MIC ([7]; pre-incubated in Mouse Serum): >64 UG/ML
MIC ([8]; GC2272, read-out: MINIMAL INHIBITORY CONCENTRATION MIC, pre-incubated in Human Serum): 16 µg/mL (≈ 20.6 µM)
MIC ([8]; GC2272, read-out: MINIMAL INHIBITORY CONCENTRATION MIC, pre-incubated in Mouse Serum): 1 µg/mL (≈ 1.29 µM)
MIC ([8]; GC2272, read-out: MINIMAL INHIBITORY CONCENTRATION MIC, pre-incubated in Water): > 64 µg/mL
MIC ([9]; GC6467, read-out: MINIMAL INHIBITORY CONCENTRATION MIC, pre-incubated in Human Serum): 2 µg/mL (≈ 2.57 µM)
MIC ([9]; GC6467, read-out: MINIMAL INHIBITORY CONCENTRATION MIC, pre-incubated in Mouse Serum): 1 µg/mL (≈ 1.29 µM)
MIC ([9]; GC6467, read-out: MINIMAL INHIBITORY CONCENTRATION MIC, pre-incubated in Water): 4 µg/mL (≈ 5.14 µM)
MIC ([10]; GC6465, read-out: MINIMAL INHIBITORY CONCENTRATION MIC, pre-incubated in Human Serum): > 64 µg/mL
MIC ([10]; GC6465, read-out: MINIMAL INHIBITORY CONCENTRATION MIC, pre-incubated in Mouse Serum): 2 µg/mL (≈ 2.57 µM)
MIC ([10]; GC6465, read-out: MINIMAL INHIBITORY CONCENTRATION MIC, pre-incubated in Water): > 64 µg/mL
MIC ([11]; GC3226, read-out: MINIMAL INHIBITORY CONCENTRATION MIC, pre-incubated in Human Serum): 32 µg/mL (≈ 41.1 µM)
MIC ([11]; GC3226, read-out: MINIMAL INHIBITORY CONCENTRATION MIC, pre-incubated in Mouse Serum): 2 µg/mL (≈ 2.57 µM)
MIC ([11]; GC3226, read-out: MINIMAL INHIBITORY CONCENTRATION MIC, pre-incubated in Water): > 64 µg/mL
MIC ([12]; GC1079, read-out: MINIMAL INHIBITORY CONCENTRATION MIC, pre-incubated in Human Serum): 2 µg/mL (≈ 2.57 µM)
MIC ([12]; GC1079, read-out: MINIMAL INHIBITORY CONCENTRATION MIC, pre-incubated in Mouse Serum): 1 µg/mL (≈ 1.29 µM)
MIC ([12]; GC1079, read-out: MINIMAL INHIBITORY CONCENTRATION MIC, pre-incubated in Water): 2 µg/mL (≈ 2.57 µM)
MIC ([13]; GC2233, read-out: MINIMAL INHIBITORY CONCENTRATION MIC, pre-incubated in Human Serum): 16 µg/mL (≈ 20.6 µM)
MIC ([13]; GC2233, read-out: MINIMAL INHIBITORY CONCENTRATION MIC, pre-incubated in Mouse Serum): 0.5 µg/mL (≈ 0.643 µM)
MIC ([13]; GC2233, read-out: MINIMAL INHIBITORY CONCENTRATION MIC, pre-incubated in Water): > 64 µg/mL
MIC ([14]; GC2243, read-out: MINIMAL INHIBITORY CONCENTRATION MIC, pre-incubated in Human Serum): 2 µg/mL (≈ 2.57 µM)
MIC ([14]; GC2243, read-out: MINIMAL INHIBITORY CONCENTRATION MIC, pre-incubated in Mouse Serum): 0.5 µg/mL (≈ 0.643 µM)
MIC ([14]; GC2243, read-out: MINIMAL INHIBITORY CONCENTRATION MIC, pre-incubated in Water): 2 µg/mL (≈ 2.57 µM)
MIC ([15]; GC2214, read-out: MINIMAL INHIBITORY CONCENTRATION MIC, pre-incubated in Human Serum): > 64 µg/mL
MIC ([15]; GC2214, read-out: MINIMAL INHIBITORY CONCENTRATION MIC, pre-incubated in Mouse Serum): 32 µg/mL (≈ 41.1 µM)
MIC ([15]; GC2214, read-out: MINIMAL INHIBITORY CONCENTRATION MIC, pre-incubated in Water): > 64 µg/mL
MIC ([16]; GC4560, read-out: MINIMAL INHIBITORY CONCENTRATION MIC, pre-incubated in Human Serum): 4 µg/mL (≈ 5.14 µM)
MIC ([16]; GC4560, read-out: MINIMAL INHIBITORY CONCENTRATION MIC, pre-incubated in Mouse Serum): 1 µg/mL (≈ 1.29 µM)
MIC ([16]; GC4560, read-out: MINIMAL INHIBITORY CONCENTRATION MIC, pre-incubated in Water): 16 µg/mL (≈ 20.6 µM)
MIC ([17]; GC6335, read-out: MINIMAL INHIBITORY CONCENTRATION MIC, pre-incubated in Human Serum): 2 µg/mL (≈ 2.57 µM)
MIC ([17]; GC6335, read-out: MINIMAL INHIBITORY CONCENTRATION MIC, pre-incubated in Mouse Serum): 1 µg/mL (≈ 1.29 µM)
MIC ([17]; GC6335, read-out: MINIMAL INHIBITORY CONCENTRATION MIC, pre-incubated in Water): 2 µg/mL (≈ 2.57 µM)
MIC ([18]; GC6469, read-out: MINIMAL INHIBITORY CONCENTRATION MIC, pre-incubated in Human Serum): 2 µg/mL (≈ 2.57 µM)
MIC ([18]; GC6469, read-out: MINIMAL INHIBITORY CONCENTRATION MIC, pre-incubated in Mouse Serum): 1 µg/mL (≈ 1.29 µM)
MIC ([18]; GC6469, read-out: MINIMAL INHIBITORY CONCENTRATION MIC, pre-incubated in Water): 4 µg/mL (≈ 5.14 µM)
MIC ([19]; GC2203, read-out: MINIMAL INHIBITORY CONCENTRATION MIC, pre-incubated in Human Serum): 32 µg/mL (≈ 41.1 µM)
MIC ([19]; GC2203, read-out: MINIMAL INHIBITORY CONCENTRATION MIC, pre-incubated in Mouse Serum): 1 µg/mL (≈ 1.29 µM)
MIC ([19]; GC2203, read-out: MINIMAL INHIBITORY CONCENTRATION MIC, pre-incubated in Water): > 64 µg/mL
MIC ([20]; GC2265, read-out: MINIMAL INHIBITORY CONCENTRATION MIC, pre-incubated in Human Serum): 4 µg/mL (≈ 5.14 µM)
MIC ([20]; GC2265, read-out: MINIMAL INHIBITORY CONCENTRATION MIC, pre-incubated in Mouse Serum): 1 µg/mL (≈ 1.29 µM)
MIC ([20]; GC2265, read-out: MINIMAL INHIBITORY CONCENTRATION MIC, pre-incubated in Water): 4 µg/mL (≈ 5.14 µM)
Structure (SMILES): Cc1ccc(C(=O)OCOC(=O)N(CC(=O)Nc2cc(N(C)C)c3c(c2O)C(=O)C2=C(O)[C@]4(O)C(=O)C(C(N)=O)=C(O)[C@@H](N(C)C)[C@@H]4C[C@@H]2C3)C(C)(C)C)cc1 [Example 47]
